Source: article PMC10458471, “Electrophysiological Assessment of Newly Synthesized 2,3-Benzodiazepine Derivatives for Inhibiting the AMPA Receptor Channel” (Molecules, 2023)
Where two headings read alike, the source gives them in different places.

What was measured:
AMPA receptor subunits = assay: Whole-cell patch-clamp recording, statements over all tested AMPAR subunits (GluA1, GluA1/2, GluA2, GluA2/3) in HEK293T cells; assay type: cell-based; settings: 16 µM compound; for Effect on deactivation rate of the AMPAR subunits examined: 1 ms glutamate
Description: (§1) For the DNA preparation, the QIAGEN Plasmid Mini Kit was used to prepare up to 20 µg of high-copy plasmid DNA [30]. All AMPAR subunits utilized in this study included the flip isoform received from S. F. Heinemann (Salk Institute, La Jolla, CA, USA) and sub-cloned in pRK for expression in Human Embryonic Kidney Cells 293 (HEK293T). The human embryonic kidney (HEK293T) cells were obtained from Sigma, Taufkirchen, Germany, and we only used the HEK293T cell line due to their ease of growth and transfection and wide utilization in cell culture. For the transfection, we used the constructs GluA1, GluA2, GluA2/3, and GluA1/2, along with the GFP-expressing construct, as described in our previous work. The transfection reagents utilized were jetPRIME (Polyplus: New York, NY, USA) or Lipofectamine 2000 (Invitrogen; San Diego, CA, USA). The highly fluorescent cells were identified and selected for recording. The selected cells were seeded in Dulbecco Modified Eagle Medium (DMEM) (Sigma, Roedermark, Germany) containing 10% FBS, 0.1 mg/mL streptomycin, and 1 mM sodium pyruvate (Biological Industries; Beit-Haemek, Israel). The cells were incubated at 37 °C with 5% CO2 added to the medium and subcultured twice a week until they reached passage #20. Following a day and a half, the cells were replated on coverslips covered with Laminin (1 mg/mL; Sigma, Roedermark, Germany) for electrophysiological recordings. Our previous work has detailed the DNA preparation, cDNA transient transfection, and cell culture of HEK293T [30, 31, 32, 33].
(§2) After that, a patch was placed in front of a rapid perfusion system comprised of a theta tube flow pipe mounted on a piezoelectric translator that was used to wash the cell continuously from one barrel while the other supplied the compound of interest to the cell. Recordings were conducted 36–48 h after transfection at 22 °C, with a membrane potential of −60 mV. Currents were amplified using an integrated patch amplifier (IPA, Sutter Instruments, Novato, CA, USA), filtered at 2 kHz, and digitized at 10 kHz using SutterPatch Software v. 1.1.1 [46]. […] The extracellular medium contained (in mM): 150 NaCl, 2.8 KCl, 0.5 MgCl2, 2 CaCl2, and 10 HEPES, pH 7.4 adjusted with NaOH. The holding potential was typically −60 mV. The sample size was determined to be eight viable cells to calculate the mean inhibition of the derivative of interest. The solution exchange time (10–90% to peak) was estimated at […] using open-tip control at the end of a recording. Inhibition was calculated by comparing the current observed when the cell was supplied with glutamate alone and when the same cell was supplied with both glutamate and the 2,3-BDZ compounds. The initial tube containing only glutamate was reintroduced to the cell to ensure cellular safety and authenticate the antagonist’s findings. This step ensured that the glutamate-induced current observed before the administration of the antagonist was nearly indistinguishable from the current observed after administration.
(§3) The experiment served two purposes: first, determining the whole-cell current amplitude ratio in the absence and presence of the compounds (A/AI) to derive a constant inhibitory value independent of the rate measurement. Second, as an independent control method, a fast exchange solution flow methodology was employed using piezoelectric actuators, providing the fastest exchange solution with open-tip current rise times in the 100–300 μs range to assess the amplitude of the whole-cell current. Detailed data analysis of this process is provided in the supporting information (Tables S1–S4).
(§4) The data acquired were analyzed using Igor Pro7 (Wave Metrics, Inc., Portland, OR, USA). Receptor desensitization (τw des) and deactivation rates were estimated by fitting the current decay starting from 95% of the peak to the baseline current using a double exponential formulation. […]

[1] = Solubility observation during synthesis/characterisation; assay type: physicochemical; settings: qualitative, NMR in DMSO-d6 could not be run
Description: The synthesis of target compounds is carried out according to the sequence of reactions detailed in Scheme 1. SnCl4-catalyzed Friedel-Craft acylation of ethyl 3,4-methylenedioxy phenylacetate 1 with either 2-fluoro-4-nitrobezoylchloride 2a or 3-methoxy-4-nitrobenzoyl chloride 2b in dry CH2Cl2 yields the required ketoester intermediates 3a and 3b in 40% and 48% yields, respectively. […] Acetic acid promoted a cascade reaction (imine formation followed by cyclization) of ethyl 4,5-(methylenedioxy)-2-[…] with hydrazine hydrate in ethanol afforded 2,3-BZD-4 in a 33% yield. High yield and purity of 2,3-BZD-1 were achieved via Pd-catalyzed hydrogenation of the nitro group in 2,3-BZD-4 in methanol. The generated compounds have physical and spectral (1H-NMR) data consistent with their proposed structures.
5% Pd/C (50 mg) was added to a solution containing 1-(2-floro-4-nitrophenyl)-7,8-(methylenedioxy)-3,5-dihydro-4H-2,3-benzodiazepin-4-one (2,3-BDZ-3) (64.80 mg, 0.19 mmol) in methanol (5 mL) and formic acid (2 mL). After 48 h of stirring at ambient temperature in a hydrogen atmosphere, the Pd/C was filtered out, and the solvent was removed under pressure. The resultant residue was washed with methanol and then with diethyl ether. […]

GluA2/3 = target: T1, GluA2/3 (Rattus norvegicus, UniProt P19491+P19492); assay: Whole-cell patch-clamp recording of heteromeric GluA2/3 AMPAR expressed in HEK293T cells; assay type: cell-based; settings: for Amplitude with compound: 10 mM glutamate + 16 µM compound, mean±SEM; for Amplitude with compound / A/AI (current amplitude ratio without/with compound) / t deact (weighted deactivation time constant) / t des (weighted desensitization time constant) / Amplitude, applying glutamate alone after compound: n=8; for A/AI (current amplitude ratio without/with compound): 10 mM glutamate; for t deact (weighted deactivation time constant): 1 ms 10 mM glutamate + 16 µM compound; for t des (weighted desensitization time constant): 500 ms 10 mM glutamate + 16 µM compound; for Amplitude, applying glutamate alone after compound: washout/recovery
T1 construct: expressed in transfected cells; host or cells: HEK293T
Description: as §1, §2, §3, §4

GluA1 = target: T2, GluA1 (Rattus norvegicus, UniProt P19490); assay: Whole-cell patch-clamp recording of homomeric GluA1 AMPAR expressed in HEK293T cells; assay type: cell-based; settings: for Amplitude with compound: 10 mM glutamate + 16 µM compound, mean±SEM; for Amplitude with compound / A/AI (current amplitude ratio without/with compound) / t deact (weighted deactivation time constant) / t des (weighted desensitization time constant) / Amplitude, applying glutamate alone after compound: n=8; for A/AI (current amplitude ratio without/with compound): 10 mM glutamate; for t deact (weighted deactivation time constant): 1 ms 10 mM glutamate + 16 µM compound; for t des (weighted desensitization time constant): 500 ms 10 mM glutamate + 16 µM compound; for Amplitude, applying glutamate alone after compound: washout/recovery
T2 construct: expressed in transfected cells; host or cells: HEK293T
Description: as §1, §2, §3, §4

GluA2 = target: T3, GluA2 (Rattus norvegicus, UniProt P19491); assay: Whole-cell patch-clamp recording of homomeric GluA2 AMPAR expressed in HEK293T cells; assay type: cell-based; settings: for Amplitude with compound: 10 mM glutamate + 16 µM compound, mean±SEM; for Amplitude with compound / A/AI (current amplitude ratio without/with compound) / t deact (weighted deactivation time constant) / t des (weighted desensitization time constant) / Amplitude, applying glutamate alone after compound: n=8; for A/AI (current amplitude ratio without/with compound): 10 mM glutamate; for t deact (weighted deactivation time constant): 1 ms 10 mM glutamate + 16 µM compound; for t des (weighted desensitization time constant): 500 ms 10 mM glutamate + 16 µM compound; for Amplitude, applying glutamate alone after compound: washout/recovery
T3 construct: expressed in transfected cells; host or cells: HEK293T
Description: as §1, §2, §3, §4

GluA1/2 = target: T4, GluA1/2 (Rattus norvegicus, UniProt P19490+P19491); assay: Whole-cell patch-clamp recording of heteromeric GluA1/2 AMPAR expressed in HEK293T cells; assay type: cell-based; settings: for Amplitude with compound: 10 mM glutamate + 16 µM compound, mean±SEM; for Amplitude with compound / A/AI (current amplitude ratio without/with compound) / t deact (weighted deactivation time constant) / t des (weighted desensitization time constant) / Amplitude, applying glutamate alone after compound: n=8; for A/AI (current amplitude ratio without/with compound): 10 mM glutamate; for t deact (weighted deactivation time constant): 1 ms 10 mM glutamate + 16 µM compound; for t des (weighted desensitization time constant): 500 ms 10 mM glutamate + 16 µM compound; for Amplitude, applying glutamate alone after compound: washout/recovery
T4 construct: expressed in transfected cells; host or cells: HEK293T
Description: as §1, §2, §3, §4

[2] = 16 µM compound, 500 ms glutamate
[3] = log of IC50, read-out: Log IC50 (converted)
[4] = normalized peak current, -60 mV, pH 7.4, 22 °C, read-out: IC50

T4 sequence (P19490 19-907 isoform P19490-2 limits assumed): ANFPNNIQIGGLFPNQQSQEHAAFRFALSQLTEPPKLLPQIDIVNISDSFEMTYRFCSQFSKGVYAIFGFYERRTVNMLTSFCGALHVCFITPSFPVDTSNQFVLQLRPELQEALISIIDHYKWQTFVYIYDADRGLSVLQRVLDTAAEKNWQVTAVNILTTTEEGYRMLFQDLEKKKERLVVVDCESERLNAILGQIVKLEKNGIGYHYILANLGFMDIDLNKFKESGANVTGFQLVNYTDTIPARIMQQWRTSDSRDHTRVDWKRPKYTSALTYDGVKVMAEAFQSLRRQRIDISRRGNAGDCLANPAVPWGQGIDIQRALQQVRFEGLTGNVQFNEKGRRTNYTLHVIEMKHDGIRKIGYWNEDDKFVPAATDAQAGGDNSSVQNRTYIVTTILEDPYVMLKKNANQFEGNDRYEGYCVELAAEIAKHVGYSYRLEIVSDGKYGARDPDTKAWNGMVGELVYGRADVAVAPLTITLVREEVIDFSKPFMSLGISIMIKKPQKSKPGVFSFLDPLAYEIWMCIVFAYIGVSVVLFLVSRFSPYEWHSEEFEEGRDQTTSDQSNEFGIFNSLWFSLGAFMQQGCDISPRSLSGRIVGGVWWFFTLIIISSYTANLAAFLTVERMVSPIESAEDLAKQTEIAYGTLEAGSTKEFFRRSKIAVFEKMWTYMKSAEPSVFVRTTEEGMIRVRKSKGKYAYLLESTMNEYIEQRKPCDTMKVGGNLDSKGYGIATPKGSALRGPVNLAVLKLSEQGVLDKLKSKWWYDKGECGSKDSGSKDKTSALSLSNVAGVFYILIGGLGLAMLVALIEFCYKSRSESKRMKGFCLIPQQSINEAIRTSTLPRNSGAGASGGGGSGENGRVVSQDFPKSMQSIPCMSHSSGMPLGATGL
T4 sequence (P19491 22-883 isoform P19491-2 limits assumed): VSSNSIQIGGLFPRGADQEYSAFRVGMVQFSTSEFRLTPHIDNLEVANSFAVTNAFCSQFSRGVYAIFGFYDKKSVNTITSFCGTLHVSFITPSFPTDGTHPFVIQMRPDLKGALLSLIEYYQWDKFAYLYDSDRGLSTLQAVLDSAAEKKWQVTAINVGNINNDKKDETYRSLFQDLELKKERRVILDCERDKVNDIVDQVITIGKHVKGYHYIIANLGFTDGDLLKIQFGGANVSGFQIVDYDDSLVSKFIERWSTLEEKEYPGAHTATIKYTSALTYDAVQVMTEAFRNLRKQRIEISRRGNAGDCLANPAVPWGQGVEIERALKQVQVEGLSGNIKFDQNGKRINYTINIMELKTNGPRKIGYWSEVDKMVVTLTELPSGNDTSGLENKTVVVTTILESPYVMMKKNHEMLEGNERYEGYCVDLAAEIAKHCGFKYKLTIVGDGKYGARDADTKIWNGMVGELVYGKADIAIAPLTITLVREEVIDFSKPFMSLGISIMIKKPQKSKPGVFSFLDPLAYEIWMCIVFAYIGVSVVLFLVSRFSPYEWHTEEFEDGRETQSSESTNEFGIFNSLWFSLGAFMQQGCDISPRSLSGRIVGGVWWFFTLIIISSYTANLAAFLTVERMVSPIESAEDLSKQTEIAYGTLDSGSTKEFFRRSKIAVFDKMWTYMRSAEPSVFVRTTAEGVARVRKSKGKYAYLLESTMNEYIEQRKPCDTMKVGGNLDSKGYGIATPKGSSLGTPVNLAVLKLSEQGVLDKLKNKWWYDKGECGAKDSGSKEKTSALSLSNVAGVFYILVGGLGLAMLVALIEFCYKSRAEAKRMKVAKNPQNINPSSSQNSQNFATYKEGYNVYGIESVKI
T2 sequence (P19490 19-907 isoform P19490-2 limits assumed): as the sequence (P19490 19-907 isoform P19490-2 limits assumed) above
T1 sequence (P19491 22-883 isoform P19491-2 limits assumed): as the sequence (P19491 22-883 isoform P19491-2 limits assumed) above
T1 sequence (P19492 23-888 isoform P19492-2 limits assumed): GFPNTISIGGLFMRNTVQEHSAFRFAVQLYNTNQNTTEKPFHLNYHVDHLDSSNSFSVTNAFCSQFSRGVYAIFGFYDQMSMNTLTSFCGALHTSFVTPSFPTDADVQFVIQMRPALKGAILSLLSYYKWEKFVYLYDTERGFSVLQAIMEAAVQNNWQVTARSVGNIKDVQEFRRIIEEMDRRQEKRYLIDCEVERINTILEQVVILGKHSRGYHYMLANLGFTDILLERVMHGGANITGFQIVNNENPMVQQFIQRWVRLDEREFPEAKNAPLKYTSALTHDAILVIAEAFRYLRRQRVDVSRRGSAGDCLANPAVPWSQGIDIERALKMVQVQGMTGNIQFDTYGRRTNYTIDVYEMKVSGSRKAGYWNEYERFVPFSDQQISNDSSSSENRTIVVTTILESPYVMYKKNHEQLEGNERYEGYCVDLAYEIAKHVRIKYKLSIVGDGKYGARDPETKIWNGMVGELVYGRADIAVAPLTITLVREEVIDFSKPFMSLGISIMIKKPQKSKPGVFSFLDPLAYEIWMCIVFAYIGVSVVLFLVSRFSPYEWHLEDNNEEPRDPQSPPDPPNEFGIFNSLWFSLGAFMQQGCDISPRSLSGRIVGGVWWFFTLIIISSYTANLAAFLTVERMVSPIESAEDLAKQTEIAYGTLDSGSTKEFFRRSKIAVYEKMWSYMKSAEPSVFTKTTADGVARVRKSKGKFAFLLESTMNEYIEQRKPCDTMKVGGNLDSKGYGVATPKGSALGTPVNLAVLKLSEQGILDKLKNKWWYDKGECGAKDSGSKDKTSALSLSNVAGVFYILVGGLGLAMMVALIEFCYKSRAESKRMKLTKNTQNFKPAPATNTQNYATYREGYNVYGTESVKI
T3 sequence (P19491 22-883 isoform P19491-2 limits assumed): as the sequence (P19491 22-883 isoform P19491-2 limits assumed) above

Compound	Reduction in AMPAR subunit currents (AMPA receptor subunits)	Effect on deactivation rate of the AMPAR subunits examined (AMPA receptor subunits)	Amplitude with compound (GluA2/3; -60 mV, pH 7.4, 22 °C)	A/AI (current amplitude ratio without/with compound) (GluA2/3; 16 µM compound)	t deact (weighted deactivation time constant) (GluA2/3)	t des (weighted desensitization time constant) (GluA2/3)	IC50 (GluA2/3; [3])	IC50 (GluA2/3; [4])	Amplitude, applying glutamate alone after compound (GluA2/3)	Amplitude with compound (GluA1; -60 mV, pH 7.4, 22 °C)	A/AI (current amplitude ratio without/with compound) (GluA1; 16 µM compound)	t deact (weighted deactivation time constant) (GluA1)	t des (weighted desensitization time constant) (GluA1)	IC50 (GluA1; [3])	IC50 (GluA1; [4])	Amplitude, applying glutamate alone after compound (GluA1)	Amplitude with compound (GluA2; -60 mV, pH 7.4, 22 °C)	A/AI (current amplitude ratio without/with compound) (GluA2; 16 µM compound)	t deact (weighted deactivation time constant) (GluA2)	t des (weighted desensitization time constant) (GluA2)	also measured
Nc1ccc(C2=NNC(=O)Cc3cc4c(cc32)OCO4)c(F)c1 [2,3-BDZ-1, 1-(4-Amino-2-fluorophenyl)-7,8-(methylenedioxy)-3,5-dihydro-4H-2,3-benzodiazepin-4-one]	11–12 fold	almost triples	49±4 pA	12.09±1.0	8.1 ± 0.7 ms	0.8 ± 0.08 ms	3.09 µM	3.09 µM	589±33 pA	85±7.0 pA	11.08±1.0	6.3 ± 0.4 ms	1.1 ± 0.1 ms	3.24 µM	3.26 µM	935±39 pA	108±9.0 pA	12.31±1.0	8.7 ± 0.6 ms	0.6 ± 0.05 ms	Solubility (observation) [1]: low solubility; Solubility (observation) ([1]; listed as 2,3-BZD-1): highly insoluble; Reduction of desensitization rate (GluA2/3; [2]): 3–4 fold; Reduction of desensitization rate (GluA1; [2]): ~2 fold; Reduction of desensitization rate (GluA2; [2]): 4–5 fold; IC50 (GluA2; [3]): 3.02 µM; IC50 (GluA2; [4]): 3.02 µM; Amplitude, applying glutamate alone after compound (GluA2): 1322±33 pA; Reduction of desensitization rate (GluA1/2; [2]): ~2 fold; Amplitude with compound (GluA1/2; -60 mV, pH 7.4, 22 °C): 51±7.0 pA; A/AI (current amplitude ratio without/with compound) (GluA1/2; 16 µM compound): 11.21±1.0; t deact (weighted deactivation time constant) (GluA1/2): 6.7 ± 0.6 ms; t des (weighted desensitization time constant) (GluA1/2): 2.7 ± 0.2 ms; IC50 (GluA1/2; [3]): 3.02 µM; IC50 (GluA1/2; [4]): 3.05 µM; Amplitude, applying glutamate alone after compound (GluA1/2): 575±35 pA
COc1cc(N)ccc1C1=NNC(=O)Cc2cc3c(cc21)OCO3 [2,3-BDZ-2, 1-(2-Methoxy-4-aminophenyl)-7,8-(methylenedioxy)-3,5-dihydro-4H-2,3-benzodiazepin-4-one]	approximately 10 fold	nearly doubles	52±7.0 pA	10.28±0.6	4.8 ± 0.5 ms	1.7 ± 0.08 ms	3.47 µM	3.45 µM	532±26 pA	93±10.0 pA	9.82±0.7	3.6 ± 0.3 ms	1.8 ± 0.1 ms	3.47 µM	3.51 µM	914±40 pA	127±12.0 pA	10.42±0.8	5.1 ± 0.4 ms	1.6 ± 0.05 ms	Reduction in the desensitization rate of the investigated subunits (AMPA receptor subunits; 500 ms glutamate): 1–2 fold; IC50 (GluA2; [3]): 3.39 µM; IC50 (GluA2; [4]): 3.36 µM; Amplitude, applying glutamate alone after compound (GluA2): 1310±42 pA; Amplitude with compound (GluA1/2; -60 mV, pH 7.4, 22 °C): 53±3.0 pA; A/AI (current amplitude ratio without/with compound) (GluA1/2; 16 µM compound): 9.91±0.6; t deact (weighted deactivation time constant) (GluA1/2): 3.9 ± 0.4 ms; t des (weighted desensitization time constant) (GluA1/2): 3.8 ± 0.3 ms; IC50 (GluA1/2; [3]): 3.39 µM; IC50 (GluA1/2; [4]): 3.43 µM; Amplitude, applying glutamate alone after compound (GluA1/2): 523±33 pA
COc1cc([N+](=O)[O-])ccc1C1=NNC(=O)Cc2cc3c(cc21)OCO3 [2,3-BDZ-4, 1-(2-Methoxy-4-nitrophenyl)-7,8-(methylenedioxy)-3,5-dihydro-4H-2,3-benzodiazepin-4-one]	3 fold	no change	146±14 pA	3.56±0.3	2.8 ± 0.2 ms	2.6 ± 0.2 ms	6.76 µM	6.69 µM	516±23 pA	277±14 pA	3.41±0.2	2.3 ± 0.1 ms	2.2 ± 0.1 ms	6.76 µM	6.8 µM	942±44 pA	364±17 pA	3.68±0.1	2.7 ± 0.1 ms	2.5 ± 0.1 ms	Effect on desensitization rate (AMPA receptor subunits): no change; IC50 (GluA2; [3]): 6.76 µM; IC50 (GluA2; [4]): 6.75 µM; Amplitude, applying glutamate alone after compound (GluA2): 1340±52 pA; Amplitude with compound (GluA1/2; -60 mV, pH 7.4, 22 °C): 170±9 pA; A/AI (current amplitude ratio without/with compound) (GluA1/2; 16 µM compound): 3.44±0.2; t deact (weighted deactivation time constant) (GluA1/2): 2.7 ± 0.2 ms; t des (weighted desensitization time constant) (GluA1/2): 5.0 ± 0.3 ms; IC50 (GluA1/2; [3]): 6.76 µM; IC50 (GluA1/2; [4]): 6.69 µM; Amplitude, applying glutamate alone after compound (GluA1/2): 583±40 pA
